The record followed here is PubChem BioAssay AID1259407 (Chemical Carcinogenesis Research Information System (CCRIS), 2018).

Calls of active or inactive are those of the source. No rule for the calls is given here.

The test system of the data set is CCRIS mutagenicity, Ames/micronucleus/aberration tests. Description: CCRIS mutagenicity studies.
Where [1] appears, read: Test System: AMES SALMONELLA TYPHIMURIUM, Strain/Indicator: TA97, Metabolic Activation: NONE, Method: PREINCUBATION
The mark [2] stands for this setting: Test System: AMES SALMONELLA TYPHIMURIUM, Strain/Indicator: TA98, Metabolic Activation: HAMSTER, LIVER, S-9, AROCLOR 1254 (10%), Method: PREINCUBATION
The mark [3] stands for this setting: Test System: AMES SALMONELLA TYPHIMURIUM, Strain/Indicator: TA98, Metabolic Activation: NONE, Method: PREINCUBATION
[4] abbreviates: Test System: AMES SALMONELLA TYPHIMURIUM, Strain/Indicator: TA98, Metabolic Activation: RAT, LIVER, S-9, AROCLOR 1254 (10%), Method: PREINCUBATION
[5] abbreviates: Test System: AMES SALMONELLA TYPHIMURIUM, Strain/Indicator: TA100, Metabolic Activation: HAMSTER, LIVER, S-9, AROCLOR 1254 (10%), Method: PREINCUBATION
Setting [6] is: Test System: AMES SALMONELLA TYPHIMURIUM, Strain/Indicator: TA100, Metabolic Activation: NONE, Method: PREINCUBATION
The mark [7] stands for this setting: Test System: AMES SALMONELLA TYPHIMURIUM, Strain/Indicator: TA100, Metabolic Activation: RAT, LIVER, S-9, AROCLOR 1254 (10%), Method: PREINCUBATION
[8] abbreviates: Test System: AMES SALMONELLA TYPHIMURIUM, Strain/Indicator: TA1535, Metabolic Activation: HAMSTER, LIVER, S-9, AROCLOR 1254 (10%), Method: PREINCUBATION
[9] abbreviates: Test System: AMES SALMONELLA TYPHIMURIUM, Strain/Indicator: TA1535, Metabolic Activation: NONE, Method: PREINCUBATION
The mark [10] stands for this setting: Test System: AMES SALMONELLA TYPHIMURIUM, Strain/Indicator: TA1535, Metabolic Activation: RAT, LIVER, S-9, AROCLOR 1254 (10%), Method: PREINCUBATION
[11] abbreviates: Test System: AMES SALMONELLA TYPHIMURIUM, Strain/Indicator: TA1537, Metabolic Activation: HAMSTER, LIVER, S-9, AROCLOR 1254 (10%), Method: PREINCUBATION
The mark [12] stands for this setting: Test System: AMES SALMONELLA TYPHIMURIUM, Strain/Indicator: TA1537, Metabolic Activation: NONE, Method: PREINCUBATION
Where [13] appears, read: Test System: AMES SALMONELLA TYPHIMURIUM, Strain/Indicator: TA1537, Metabolic Activation: RAT, LIVER, S-9, AROCLOR 1254 (10%), Method: PREINCUBATION
Where [14] appears, read: Test System: AMES SALMONELLA TYPHIMURIUM, Strain/Indicator: TA98, Metabolic Activation: NONE, Method: STANDARD PLATE.
Setting [15] is: Test System: AMES SALMONELLA TYPHIMURIUM, Strain/Indicator: TA100, Metabolic Activation: NONE, Method: STANDARD PLATE.

Consider `C1=C\CC/C=C\CC/1.C1=C\CC/C=C\CC/1.[Ni]`, for which the mutagenic call is, setting by setting: (Test System: AMES SALMONELLA TYPHIMURIUM, Strain/Indicator: TA97, Metabolic Activation: HAMSTER, LIVER, S-9, AROCLOR 1254 (10%), Method: PREINCUBATION) “inactive; negative”; (Test System: AMES SALMONELLA TYPHIMURIUM, Strain/Indicator: TA97, Metabolic Activation: HAMSTER, LIVER, S-9, AROCLOR 1254 (30%), Method: PREINCUBATION) “inactive; negative”; under setting [1], “inactive; negative”; (Test System: AMES SALMONELLA TYPHIMURIUM, Strain/Indicator: TA97, Metabolic Activation: RAT, LIVER, S-9, AROCLOR 1254 (10%), Method: PREINCUBATION) “inactive; negative”; (Test System: AMES SALMONELLA TYPHIMURIUM, Strain/Indicator: TA97, Metabolic Activation: RAT, LIVER, S-9, AROCLOR 1254 (30%), Method: PREINCUBATION) “inactive; negative”; under setting [2], “inactive; negative”. For the same compound, the mutagenic call runs as follows: under setting [3], “inactive; negative”; under setting [4], “inactive; negative”; under setting [5], “inactive; negative”; (Test System: AMES SALMONELLA TYPHIMURIUM, Strain/Indicator: TA100, Metabolic Activation: HAMSTER, LIVER, S-9, AROCLOR 1254 (30%), Method: PREINCUBATION) “inactive; negative”; under setting [6], “inactive; negative”; under setting [7], “active; positive”. The mutagenic call (Test System: AMES SALMONELLA TYPHIMURIUM, Strain/Indicator: TA100, Metabolic Activation: RAT, LIVER, S-9, AROCLOR 1254 (30%), Method: PREINCUBATION) was “inactive; negative”; the mutagenic call under setting [8] is “inactive; negative”; the mutagenic call under setting [9] was “inactive; negative”; the mutagenic call under setting [10] is “inactive; negative”; the mutagenic call (Test System: Ames Salmonella typhimurium, Strain/Indicator: TA100, Metabolic Activation: None, Method: Preincubation) is “inactive; negative”; the mutagenic call (Test System: Ames Salmonella typhimurium, Strain/Indicator: TA100, Metabolic Activation: Rat, Liver, S9, Phenobarbital and 5,6-benzoflavone, Method: Preincubation) is “inactive; negative”. Also, the mutagenic call was “inactive; negative” (Test System: Ames Salmonella typhimurium, Strain/Indicator: TA102, Metabolic Activation: None, Method: Preincubation); “inactive; negative” (Test System: Ames Salmonella typhimurium, Strain/Indicator: TA102, Metabolic Activation: Rat, Liver, S9, Phenobarbital and 5,6-benzoflavone, Method: Preincubation).

Consider `CCN`, for which the mutagenic call by setting is: under setting [2], “inactive; negative”; under setting [3], “inactive; negative”; under setting [4], “inactive; negative”; under setting [5], “inactive; negative”; under setting [6], “inactive; negative”; under setting [7], “inactive; negative”. In addition, the mutagenic call is, setting by setting: under setting [8], “inactive; negative”; under setting [9], “inactive; negative”; under setting [10], “inactive; negative”; under setting [11], “inactive; negative”; under setting [12], “inactive; negative”; under setting [13], “inactive; negative”.

`c1ccc(N(c2ccccc2)c2ccccc2)cc1`: the mutagenic call is “inactive; negative” (Test System: AMES SALMONELLA TYPHIMURIUM, Strain/Indicator: TA97, Metabolic Activation: HAMSTER, LIVER, S-9, AROCLOR 1254 (10 OR 30%), Method: PREINCUBATION); “inactive; negative” under setting [1]; “inactive; negative” (Test System: AMES SALMONELLA TYPHIMURIUM, Strain/Indicator: TA97, Metabolic Activation: RAT, LIVER, S-9, AROCLOR 1254 (10 OR 30%), Method: PREINCUBATION); “inactive; negative” under setting [2]; “inactive; negative” (Test System: AMES SALMONELLA TYPHIMURIUM, Strain/Indicator: TA98, Metabolic Activation: HAMSTER, LIVER, S-9, AROCLOR 1254 (10 OR 30%), Method: PREINCUBATION); “inactive; negative” under setting [3]. The mutagenic call was “inactive; negative” under setting [4]; “inactive; negative” (Test System: AMES SALMONELLA TYPHIMURIUM, Strain/Indicator: TA98, Metabolic Activation: RAT, LIVER, S-9, AROCLOR 1254 (10 OR 30%), Method: PREINCUBATION); “inactive; negative” under setting [5]; “inactive; negative” (Test System: AMES SALMONELLA TYPHIMURIUM, Strain/Indicator: TA100, Metabolic Activation: HAMSTER, LIVER, S-9, AROCLOR 1254 (10 OR 30%), Method: PREINCUBATION); “inactive; negative” under setting [6]; “inactive; negative” under setting [7]. Moreover, the mutagenic call reads like this: (Test System: AMES SALMONELLA TYPHIMURIUM, Strain/Indicator: TA100, Metabolic Activation: RAT, LIVER, S-9, AROCLOR 1254 (10 OR 30%), Method: PREINCUBATION) “inactive; negative”; under setting [8], “inactive; negative”; (Test System: AMES SALMONELLA TYPHIMURIUM, Strain/Indicator: TA1535, Metabolic Activation: HAMSTER, LIVER, S-9, AROCLOR 1254 (10 OR 30%), Method: PREINCUBATION) “inactive; negative”; under setting [9], “inactive; negative”; under setting [10], “inactive; negative”; (Test System: AMES SALMONELLA TYPHIMURIUM, Strain/Indicator: TA1535, Metabolic Activation: RAT, LIVER, S-9, AROCLOR 1254 (10 OR 30%), Method: PREINCUBATION) “inactive; negative”. Besides, the mutagenic call under setting [11] is “inactive; negative”; the mutagenic call (Test System: AMES SALMONELLA TYPHIMURIUM, Strain/Indicator: TA1537, Metabolic Activation: HAMSTER, LIVER, S-9, AROCLOR 1254 (10 OR 30%), Method: PREINCUBATION) is “inactive; negative”; the mutagenic call under setting [12] was “inactive; negative”; the mutagenic call under setting [13] is “inactive; negative”; the mutagenic call (Test System: AMES SALMONELLA TYPHIMURIUM, Strain/Indicator: TA1537, Metabolic Activation: RAT, LIVER, S-9, AROCLOR 1254 (10 OR 30%), Method: PREINCUBATION) was “inactive; negative”.

Take `O=C(c1ccccc1)n1ncc(Cl)c(Cl)c1=O`: the mutagenic call under setting [14] was “inactive; negative”; the mutagenic call (Test System: AMES SALMONELLA TYPHIMURIUM, Strain/Indicator: TA98, Metabolic Activation: RAT, LIVER, S-9, AROCLOR 1254, Method: STANDARD PLATE) is “inactive; negative”; the mutagenic call under setting [15] was “inactive; negative”; the mutagenic call (Test System: AMES SALMONELLA TYPHIMURIUM, Strain/Indicator: TA100, Metabolic Activation: RAT, LIVER, S-9, AROCLOR 1254, Method: STANDARD PLATE) is “inactive; negative”; the mutagenic call (Test System: AMES SALMONELLA TYPHIMURIUM, Strain/Indicator: TA1535, Metabolic Activation: NONE, Method: STANDARD PLATE) was “inactive; negative”; the mutagenic call (Test System: AMES SALMONELLA TYPHIMURIUM, Strain/Indicator: TA1535, Metabolic Activation: RAT, LIVER, S-9, AROCLOR 1254, Method: STANDARD PLATE) was “inactive; negative”. Moreover, the mutagenic call (Test System: AMES SALMONELLA TYPHIMURIUM, Strain/Indicator: TA1537, Metabolic Activation: NONE, Method: STANDARD PLATE) was “inactive; negative” and the mutagenic call (Test System: AMES SALMONELLA TYPHIMURIUM, Strain/Indicator: TA1537, Metabolic Activation: RAT, LIVER, S-9, AROCLOR 1254, Method: STANDARD PLATE) was “inactive; negative”.

Turning to `ClCc1c2ccccc2c2ccc3cccc4ccc1c2c43`, the mutagenic call runs as follows: under setting [14], “inactive; negative”; under setting [15], “inactive; negative”.
